# Measured values as given in US20230414826A1, “FIBRIN HYDROGELS” (Mayo Foundation for Medical Education and Research, priority 2020, published 2023).
# Target: T1, fibrinogen and thrombin (clinical standard from the manufacturer) (Homo sapiens, UniProt P02671+P02675+P02679)
# T1 sequence (P02671 20-629 limits assumed): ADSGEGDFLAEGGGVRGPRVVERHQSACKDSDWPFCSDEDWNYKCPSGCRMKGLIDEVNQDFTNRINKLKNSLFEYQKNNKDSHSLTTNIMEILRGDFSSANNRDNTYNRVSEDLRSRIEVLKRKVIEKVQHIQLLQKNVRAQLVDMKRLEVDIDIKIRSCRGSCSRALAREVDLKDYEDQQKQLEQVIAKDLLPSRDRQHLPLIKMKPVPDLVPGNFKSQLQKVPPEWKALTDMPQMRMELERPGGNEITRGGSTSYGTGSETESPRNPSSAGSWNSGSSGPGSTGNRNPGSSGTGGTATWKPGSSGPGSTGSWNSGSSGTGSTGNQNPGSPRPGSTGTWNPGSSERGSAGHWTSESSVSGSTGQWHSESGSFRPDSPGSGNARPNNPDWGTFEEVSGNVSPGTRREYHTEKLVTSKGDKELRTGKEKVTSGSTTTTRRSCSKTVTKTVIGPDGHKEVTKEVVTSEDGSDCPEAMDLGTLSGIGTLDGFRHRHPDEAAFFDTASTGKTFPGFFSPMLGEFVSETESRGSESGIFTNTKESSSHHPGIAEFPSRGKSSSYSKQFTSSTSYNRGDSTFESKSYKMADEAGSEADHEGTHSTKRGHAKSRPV
# T1 sequence (P02675 31-491): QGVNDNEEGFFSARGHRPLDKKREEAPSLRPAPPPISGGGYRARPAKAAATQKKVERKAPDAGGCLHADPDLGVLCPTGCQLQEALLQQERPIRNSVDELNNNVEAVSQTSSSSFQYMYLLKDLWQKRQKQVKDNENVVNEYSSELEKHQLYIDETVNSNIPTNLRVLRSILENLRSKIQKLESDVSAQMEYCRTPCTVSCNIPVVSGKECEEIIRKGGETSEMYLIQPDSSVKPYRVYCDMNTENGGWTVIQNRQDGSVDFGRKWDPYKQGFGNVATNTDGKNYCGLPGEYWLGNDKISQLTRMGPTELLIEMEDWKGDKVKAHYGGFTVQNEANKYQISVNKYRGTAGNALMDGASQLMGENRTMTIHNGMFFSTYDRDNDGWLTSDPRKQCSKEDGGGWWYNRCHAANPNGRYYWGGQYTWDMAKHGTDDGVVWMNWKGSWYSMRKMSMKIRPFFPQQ
# T1 sequence (P02679 27-433 limits assumed): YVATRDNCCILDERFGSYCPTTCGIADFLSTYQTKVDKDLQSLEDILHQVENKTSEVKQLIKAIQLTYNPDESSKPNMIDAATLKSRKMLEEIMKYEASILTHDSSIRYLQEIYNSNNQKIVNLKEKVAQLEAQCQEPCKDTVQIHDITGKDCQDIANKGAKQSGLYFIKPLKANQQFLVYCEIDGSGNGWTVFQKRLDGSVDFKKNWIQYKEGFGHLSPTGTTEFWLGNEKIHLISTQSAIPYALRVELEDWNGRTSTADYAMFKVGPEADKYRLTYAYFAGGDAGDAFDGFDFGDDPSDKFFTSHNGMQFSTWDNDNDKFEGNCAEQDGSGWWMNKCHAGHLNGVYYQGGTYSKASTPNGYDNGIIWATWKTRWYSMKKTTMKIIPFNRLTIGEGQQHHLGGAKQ
# Experiment: Fibrinogen clotting assay with coagulation analyzer (Clauss method), clinical fibrinogen standard
# Format: biochemical
# Details: clinical standard samples diluted in 1× citrate buffer + TB (4.58 mM), pH 7.4, 37° C.
# Protocol: The effect of various chemical compounds on clotting time was determined. […] The chemical additives were added to either clinical fibrinogen standards (Stago; Parsippany NJ) or a 1:20 dilution of the Evicel Biologically Active Component 2 (Ethicon), which is a fibrinogen solution (60 mg/mL) and served as the various samples. The same lot of BAC2 was used within each experiment to minimize lot-lot variability.
# The Clauss method was used to measure fibrin clotting time. The clotting assay was performed using the Stago STart® Coagulation Analyzer (Stago; Parsippany, NJ) per manufacturer's protocol. The Stago STart uses a mechanical, viscosity-based detection of clotting, independent of sample color and turbidity. Per the protocol, samples were diluted 1:20 in Owren-Koller buffer (Stago) and allowed to equilibrate for 5 minutes at 37° C. Each sample was loaded in a cuvette with a magnetic bead.
# In efforts to improve the visibility of fibrin gels during surgical implantation, it was observed that the inclusion of TB in the gelation mixture improved handling of the liquid phase of the gelation reaction. […] A coagulation analyzer is a specialized clinical instrument that is used to quantify fibrinogen concentrations in patient blood samples via the Clauss Method (Clauss, Acta Haematol., 17:237-46 (1957)). […]
smiles,measurement,value
"Cc1cc(-c2ccc(/N=N/c3c(S(=O)(=O)O)cc4cc(S(=O)(=O)O)cc(N)c4c3O)c(C)c2)ccc1/N=N/c1c(S(=O)(=O)O)cc2cc(S(=O)(=O)O)cc(N)c2c1O [TB, Trypan Blue]",gelation time (clotting time),14.6 ± 1.5 s
